In patent US4952578A, “Cephem compound and a process for preparation thereof” (Fujisawa Pharmaceutical Co., Ltd., priority 1987, dated 1990) one finds MIC data, which are given here for 1 molecule.

For this experiment, the system named is P. aeruginosa 26. The experiment in a line: In vitro antibacterial activity (MIC) by two-fold agar-plate dilution method. Type of experiment: cell-based. The settings on record: Pseudomonas aeruginosa, HI-agar, 37° C., 20 hours, read-out: MIC (minimal inhibitory concentration). The procedure:
Now in order to show the utility of the object compound [I], the test data on MIC (minimal inhibitory concentration) of representative compound [I] of this invention is shown in the following.
In vitro antibacterial activity was determined by the two-fold agar-plate dilution method as described below.
One loopful of an overnight culture of each test strain in Trypticase-soy broth (10^8 viable cells per ml) was streaked on heart infusion agar (HI-agar) containing graded concentrations of representative test compound, and the minimal inhibitory concentration (MIC) was expressed in terms of μg/ml after incubation at 37° C. for 20 hours.

Values after ≈ are worked out from the molar mass of the structure shown.

As to `CO/N=C(\C(=O)N[C@@H]1C(=O)N2C(C(=O)[O-])=C(C[n+]3ccc(N)n3CCO)CS[C@H]12)c1csc(N)n1` [Test Compound (1), 7β-[2-(2-Aminothiazol-4-yl)-2-methoxyiminoacetamido]-3-[3-amino-2-(2-hydroxyethyl)-1-pyrazolio]methyl-3-cephem-4-carboxylate (syn isomer)], the MIC was 0.39 µg/mL (≈ 0.746 µM).
